SMILES strings stand for the structures. The source made the active and inactive calls. The calls are words filed in the database; no cut-off is given here.

The target in assay [1] is T1, Tubulin (Homo sapiens) (UniProt P68371+Q9H4B7+P0DPH7+P68366+Q13509+Q71U36+P04350+Q3ZCM7+P07437+P68363+Q9BQE3+Q6PEY2+Q13885+Q9BVA1+Q9BUF5). In words: Induction of microtubule cytoskeleton disruption in human EA.hy926 cells at 25 nM measured after 24 hrs by DAPI staining based fluorescence microscopic analysis. The class given is cell-based. The settings on record: EA.hy 926.

For assay [2], the target named is T1, Tubulin (Homo sapiens). In words: Induction of microtubule cytoskeleton disruption in human EA.hy926 cells at 50 nM assessed as mitotic catastrophe measured after 24 hrs by DAPI staining based fluorescence microscopic analysis. The class given is cell-based. The settings on record: EA.hy 926.
Assay [3] is filed under the species Sus scrofa. In words: Inhibition of porcine brain tubulin polymerization at 10 uM measured at 20 sec interval for 2 hrs by turbidometric method.
Assay [4] has as its system 518A2. Put plainly: cells. The class given is functional, cell-based. The settings on record: Homo sapiens, 518A2, 72 h.
Description: Cytotoxicity against human 518A2 cells assessed as inhibition of cell growth after 72 hrs by MTT assay
The subject of assay [5] is HCT-116. Put plainly: cells. The class given is functional, cell-based. The settings on record: Homo sapiens, HCT-116, 72 h.
Description: Cytotoxicity against human HCT-116 p53 mutant cells assessed as inhibition of cell growth after 72 hrs by MTT assay
For assay [6], the system named is Chorioallantoic membrane. In words: Vascular disruptive effect in chicken fertilized egg chorioallantoic membrane at 15 nmol incubated for 6 hrs by CAM assay. The class given is functional, tissue-based. The settings on record: Gallus gallus.
The test system of assay [7] is EA.hy 926. Put plainly: cells. In kind it is functional, cell-based. The settings on record: Homo sapiens, EA.hy 926, 72 h.
Description: Cytotoxicity against human EA.hy 926 cells assessed as inhibition of cell growth after 72 hrs by MTT assay
The test system of assay [8] is HCT-116. In words: cells. Particulars: Homo sapiens, HCT-116, 72 h. In kind it is functional, cell-based. This is another data set of the same source.
Description: Cytotoxicity against wild type human HCT-116 cells assessed as inhibition of cell growth after 72 hrs by MTT assay
In assay [9] the test system is EA.hy 926. In words: Antiangiogenic activity in human EA.hy926 cells assessed as reduction in tube formation at 150 nM incubated for 6 hrs by matrigel-based MTT assay. In kind it is functional, cell-based.
Assay [10] deals with EA.hy 926. Put plainly: Cell cycle arrest in human EA.hy926 cells assessed as accumulation at G2/M phase at 25 to 70 uM after 24 hrs by propidium iodide staining based flow cytometric analysis. The class given is functional. Particulars: dose 25-70 µM.
The test system of assay [11] is EA.hy 926. In words: Induction of F-actin cytoskeleton disruption in human EA.hy926 cells at 50 nM assessed as formation of actin stress fibers measured after 3 hrs by DAPI staining based fluorescence microscopic analysis. The class given is cell-based.
In assay [12] the test system is EA.hy 926. In words: Cell cycle arrest in human EA.hy926 cells assessed as accumulation at sub-G1 phase after 24 hrs by propidium iodide staining based flow cytometric analysis. In kind it is functional.
The nature of assay [13]: cells. The class given is ADME, cell-based. The settings on record: Homo sapiens, HDFa, 72 h.
Description: Cytotoxicity against human HDfa cells assessed as inhibition of cell growth after 72 hrs by MTT assay
The species named for assay [14] is Danio rerio. In words: Antiangiogenic activity in zebrafish embryo assessed as reduction in tube formation at 500 nM incubated for 48 hrs by fluorescence microscopic analysis. In kind it is functional. Further details: scale not given: the % may be the effect or the level left.
Assay [15] deals with CDK1/Cyclin A (Homo sapiens) (UniProt P06493+P20248). In words: Inhibition of full length recombinant human CDK1/cyclin A2 expressed in baculovirus infected sf9 cells using histone H1 as substrate incubated for 15 mins in presence of ATP by ADP-Glo assay.
CDK1/Cyclin A (Homo sapiens), sequence (P06493 whole entry, looked up): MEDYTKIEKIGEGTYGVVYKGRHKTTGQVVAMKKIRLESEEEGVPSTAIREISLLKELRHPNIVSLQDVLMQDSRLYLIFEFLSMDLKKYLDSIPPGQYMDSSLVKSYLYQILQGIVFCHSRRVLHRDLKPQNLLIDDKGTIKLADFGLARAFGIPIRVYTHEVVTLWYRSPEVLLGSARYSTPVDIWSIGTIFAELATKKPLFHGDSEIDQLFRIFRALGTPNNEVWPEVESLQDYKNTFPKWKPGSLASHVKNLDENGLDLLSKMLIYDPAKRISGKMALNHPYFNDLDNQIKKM
CDK1/Cyclin A (Homo sapiens), sequence (P20248 whole entry, looked up): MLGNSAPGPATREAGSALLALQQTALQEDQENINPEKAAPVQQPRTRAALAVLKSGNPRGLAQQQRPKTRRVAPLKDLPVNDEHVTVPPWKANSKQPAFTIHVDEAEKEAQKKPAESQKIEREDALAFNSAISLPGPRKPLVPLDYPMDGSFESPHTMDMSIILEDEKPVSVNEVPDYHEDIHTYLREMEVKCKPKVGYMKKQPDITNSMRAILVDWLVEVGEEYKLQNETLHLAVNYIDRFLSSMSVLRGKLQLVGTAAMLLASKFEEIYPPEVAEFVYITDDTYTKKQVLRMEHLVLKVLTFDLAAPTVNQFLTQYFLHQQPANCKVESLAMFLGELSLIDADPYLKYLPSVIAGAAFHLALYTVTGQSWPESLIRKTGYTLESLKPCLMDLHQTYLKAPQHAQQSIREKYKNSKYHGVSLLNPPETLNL
Assay [16] is filed under the species Danio rerio. Put plainly: Antiangiogenic activity in zebrafish embryo assessed as reduction in SIV at 250 nM incubated for 48 hrs by fluorescence microscopic analysis. In kind it is functional. Further details: scale not given: the % may be the effect or the level left.
The subject of assay [17] is Chorioallantoic membrane. Put plainly: Antiangiogenic activity in chicken fertilized egg chorioallantoic membrane assessed as reduction in tube formation at 5 nmol incubated for 6 to 24 hrs by CAM assay. The class given is functional, tissue-based. Particulars: Gallus gallus, time 6-24 hrs.
Assay [18] concerns EA.hy 926. In words: Vascular disruptive effect in human EA.hy926 cells at 250 nM incubated for 12 hrs by matrigel-based MTT assay. The class given is functional, cell-based.
Assay [19] has as its system KB-V1. Put plainly: cells. The class given is functional, cell-based. Particulars: Homo sapiens, KB-V1, 72 h.
Description: Cytotoxicity against multidrug resistant human KB-V1 cells assessed as inhibition of cell growth after 72 hrs by MTT assay
Assay [20] concerns Chorioallantoic membrane. Put plainly: Vascular disruptive effect in chicken fertilized egg chorioallantoic membrane at 5 nmol incubated for 24 hrs by CAM assay. In kind it is functional, tissue-based. The settings on record: Gallus gallus.
Assay [21] relates to Chorioallantoic membrane. In words: Vascular disruptive effect in chicken fertilized egg chorioallantoic membrane at 15 nmol incubated for 24 hrs by CAM assay. In kind it is functional, tissue-based. The settings on record: Gallus gallus.

As for `COc1cc(-c2nc3sc4c(c3c(=O)[nH]2)CCCC4)cc(I)c1OC`, in assay [1], the result was inactive. The outcome in assay [2], in assay [6], in assay [9], in assay [10], in [11] and in assay [17] was Active. Moreover, the outcome in assay [18] was Active. Also, the inhibition result in assay [3] and in assay [15] was “Active” in each case. Further, the IC50 in assay [4] is 100 nM; in [5], 100 nM; in [7], 200 nM; in assay [8], 200 nM; in assay [13], > 100000 nM; in assay [19], 100 nM. For the same molecule, the values for the Activity result in assay [12], in assay [14] and in assay [16] were “Dose-dependent effect”, 28% and 18%, respectively.
Consider `CCOC(=O)N1CCc2c(sc3nc(-c4cc(I)c(OC)c(OC)c4)[nH]c(=O)c23)C1`, for which the result in assay [1] and in assay [21] was inactive. Moreover, the result in [2], in [9], in assay [20], in assay [10], in [11] and in [17] was Active. The outcome in assay [18] was Active. In addition, the inhibition entry in assay [3] and in assay [15] was “Active” in each case. Besides, the IC50 in assay [4] worked out at 100 nM; in assay [5], 100 nM; in [7], 100 nM; in [8] it was 300 nM; in [13] it was 13100 nM; in assay [19], 100 nM. In addition, the Activity result in assay [12] is “Dose-dependent effect”.

Values taken from ChEMBL document CHEMBL4680169, “Synthesis and bioevaluation of new vascular-targeting and anti-angiogenic thieno[2,3-d]pyrimidin-4(3H)-ones” (Eur J Med Chem, 2020).
